ChEMBL document CHEMBL4184182, “Studies on interactions of carbazole derivatives with DNA, cell image, and cytotoxicity” (Bioorg Med Chem, 2018)
One block for each compound: values may come before it. Activity calls are given as the source filed them. No cut-off for these calls is given here.

How the values were obtained:
Calf thymus DNA [1] = assay: Binding affinity to calf thymus DNA assessed as hyperchromicity at 15 uM after 5 mins by UV-Visible absorbance titration method; assay type: nucleic-acid assay; details: Bos taurus
Quadruplex DNA [2] = assay: Binding affinity to Bcl2 G-quadruplex DNA (unknown origin) assessed as hyperchromicity at 15 uM after 5 mins by UV-Visible absorbance titration method; assay type: nucleic-acid assay
Calf thymus DNA [3] = assay: Binding affinity to calf thymus DNA assessed as red shift at 15 uM after 5 mins by UV-Visible absorbance titration method; assay type: nucleic-acid assay; details: Bos taurus
Calf thymus DNA [4] = assay: Binding affinity to calf thymus DNA after 5 mins by UV-Visible absorbance titration method; assay type: nucleic-acid assay; details: Bos taurus
dsDNA [5] = assay: Binding affinity to 26-mer duplex DNA (unknown origin) after 5 mins by UV-Visible absorbance titration method; assay type: nucleic-acid assay
Quadruplex DNA [6] = assay: Binding affinity to c-Kit G-quadruplex DNA (unknown origin) after 5 mins by UV-Visible absorbance titration method; assay type: nucleic-acid assay
Quadruplex DNA [7] = assay: Binding affinity to Bcl2 G-quadruplex DNA (unknown origin) after 5 mins by UV-Visible absorbance titration method; assay type: nucleic-acid assay
Quadruplex DNA [8] = assay: Binding affinity to c-Myc G-quadruplex DNA (unknown origin) after 5 mins by UV-Visible absorbance titration method; assay type: nucleic-acid assay
Quadruplex DNA [9] = assay: Binding affinity to human telomeric G-quadruplex DNA after 5 mins in presence of potassium ion by UV-Visible absorbance titration method; assay type: nucleic-acid assay
Quadruplex DNA [10] = assay: Binding affinity to human telomeric G-quadruplex DNA after 5 mins in presence of sodium ion by UV-Visible absorbance titration method; assay type: nucleic-acid assay
[11] = Selectivity ratio of Kb for c-Kit G-quadruplex DNA (unknown origin) to Kb for calf thymus DNA
[12] = Selectivity ratio of Kb for Bcl2 G-quadruplex DNA (unknown origin) to Kb for calf thymus DNA
[13] = Selectivity ratio of Kb for c-Myc G-quadruplex DNA (unknown origin) to Kb for calf thymus DNA
[14] = Selectivity ratio of Kb for human telomeric G-quadruplex DNA in presence of potassium ion to Kb for calf thymus DNA
[15] = Selectivity ratio of Kb for human telomeric G-quadruplex DNA in presence of sodium ion to Kb for calf thymus DNA
Quadruplex DNA [16] = assay: Binding affinity to Bcl2 G-quadruplex DNA (unknown origin) assessed as stoichiometric ratio of compound to G-quadruplex DNA after 5 mins by Job plot analysis; assay type: nucleic-acid assay
Quadruplex DNA [17] = assay: Binding affinity to c-Kit G-quadruplex DNA (unknown origin) assessed as stoichiometric ratio of compound to G-quadruplex DNA after 5 mins by Job plot analysis; assay type: nucleic-acid assay
Quadruplex DNA [18] = assay: Binding affinity to c-Myc G-quadruplex DNA (unknown origin) assessed as stoichiometric ratio of compound to G-quadruplex DNA after 5 mins by Job plot analysis; assay type: nucleic-acid assay
Quadruplex DNA [19] = assay: Binding affinity to human telomeric G-quadruplex DNA assessed as stoichiometric ratio of compound to G-quadruplex DNA after 5 mins in presence of potassium ion by Job plot analysis; assay type: nucleic-acid assay
Quadruplex DNA [20] = assay: Binding affinity to human telomeric G-quadruplex DNA assessed as stoichiometric ratio of compound to G-quadruplex DNA after 5 mins in presence of sodium ion by Job plot analysis; assay type: nucleic-acid assay
Quadruplex DNA [21] = assay: Displacement of thiazole orange from Bcl2 G-quadruplex DNA (unknown origin) after 5 mins by fluorescence spectral analysis; assay type: nucleic-acid assay
Quadruplex DNA [22] = assay: Displacement of thiazole orange from c-Kit G-quadruplex DNA (unknown origin) after 5 mins by fluorescence spectral analysis; assay type: nucleic-acid assay
Quadruplex DNA [23] = assay: Displacement of thiazole orange from c-Myc G-quadruplex DNA (unknown origin) after 5 mins by fluorescence spectral analysis; assay type: nucleic-acid assay
Quadruplex DNA [24] = assay: Displacement of thiazole orange from human telomeric G-quadruplex DNA after 5 mins in presence of potassium ion by fluorescence spectral analysis; assay type: nucleic-acid assay
Quadruplex DNA [25] = assay: Displacement of thiazole orange from human telomeric G-quadruplex DNA after 5 mins in presence of sodium ion by fluorescence spectral analysis; assay type: nucleic-acid assay
dsDNA [26] = assay: Displacement of thiazole orange from 26-mer duplex DNA (unknown origin) after 5 mins by fluorescence spectral analysis; assay type: nucleic-acid assay
[27] = Selectivity ratio of DC50 for 26-mer duplex DNA (unknown origin) to DC50 for Bcl2 G-quadruplex DNA (unknown origin)
[28] = Selectivity ratio of DC50 for 26-mer duplex DNA (unknown origin) to DC50 for c-Kit G-quadruplex DNA (unknown origin)
[29] = Selectivity ratio of DC50 for 26-mer duplex DNA (unknown origin) to DC50 for c-Myc G-quadruplex DNA (unknown origin)
[30] = Selectivity ratio of DC50 for 26-mer duplex DNA (unknown origin) to DC50 for human telomeric G-quadruplex DNA in presence of potassium ion
[31] = Selectivity ratio of DC50 for 26-mer duplex DNA (unknown origin) to DC50 for human telomeric G-quadruplex DNA in presence of sodium ion
Quadruplex DNA [32] = assay: Induction of conformational changes in Bcl2 G-quadruplex DNA (unknown origin) at 15 uM after 5 mins by CD spectral analysis; assay type: nucleic-acid assay
Quadruplex DNA [33] = assay: Induction of conformational changes in c-Kit G-quadruplex DNA (unknown origin) at 15 uM after 5 mins by CD spectral analysis; assay type: nucleic-acid assay
Quadruplex DNA [34] = assay: Induction of conformational changes in c-Myc G-quadruplex DNA (unknown origin) at 15 uM after 5 mins by CD spectral analysis; assay type: nucleic-acid assay
Quadruplex DNA [35] = assay: Induction of conformational changes in human telomeric G-quadruplex DNA at 15 uM after 5 mins in presence of potassium ion by CD spectral analysis; assay type: nucleic-acid assay
Quadruplex DNA [36] = assay: Induction of conformational changes in human telomeric G-quadruplex DNA at 15 uM after 5 mins in presence of sodium ion by CD spectral analysis; assay type: nucleic-acid assay
Quadruplex DNA [37] = assay: Binding affinity to Bcl2 G-quadruplex DNA (unknown origin) assessed as enhanced fluorescence time at 5 uM after 5 mins by fluorescence titration assay relative to control; assay type: nucleic-acid assay
Quadruplex DNA [38] = assay: Binding affinity to human telomeric G-quadruplex DNA assessed as enhanced fluorescence ratio at 5 uM after 5 mins in presence of sodium ion by fluorescence titration assay relative to control; assay type: nucleic-acid assay
HepG2 [39] = assay: Antiproliferative activity against human HepG2 cells after 72 hrs by MTT assay; assay type: functional, cell-based; details: for IC50: HepG2, 72 h
[40] = Drug uptake in RNase-A treated human HepG2 cell cytoplasm at 10 uM after 2.5 hrs by confocal microscopic method; assay type: ADME, subcellular; details: hepg2, 2.5 h
Quadruplex DNA [41] = assay: Binding affinity to c-Kit G-quadruplex DNA (unknown origin) assessed as hyperchromicity at 10 uM after 5 mins by UV-Visible absorbance titration method; assay type: nucleic-acid assay
Quadruplex DNA [42] = assay: Binding affinity to Bcl2 G-quadruplex DNA (unknown origin) assessed as hyperchromicity at 10 uM after 5 mins by UV-Visible absorbance titration method; assay type: nucleic-acid assay
Quadruplex DNA [43] = assay: Binding affinity to human telomeric G-quadruplex DNA assessed as red shift at 10 uM after 5 mins in presence of sodium ion by UV-Visible absorbance titration method; assay type: nucleic-acid assay
Quadruplex DNA [44] = assay: Binding affinity to human telomeric G-quadruplex DNA assessed as emission maximum at 5 uM after 5 mins in presence of sodium ion by fluorescence titration method (reference value: 584 nanometer); assay type: nucleic-acid assay
HepG2 [45] = assay: Induction of morphological changes in human HepG2 cells assessed as debris formation at 5 uM after 24 hrs; assay type: functional, cell-based

- Activity (Calf thymus DNA [1]): 39.4%
- Activity (Quadruplex DNA [2]): 42.7%
- Activity (Calf thymus DNA [3]): 23 nm
- Kb (Calf thymus DNA [4]): 1 ×10⁴ /M
- Kb (dsDNA [5]): 2.28 ×10⁴ /M
- Kb (Quadruplex DNA [6]): 10.7 ×10⁴ /M
- Kb (Quadruplex DNA [7]): 9.99 ×10⁴ /M
- Kb (Quadruplex DNA [8]): 19.2 ×10⁴ /M
- Kb (Quadruplex DNA [9]): 11.9 ×10⁴ /M
- Kb (Quadruplex DNA [10]): 6.95 ×10⁴ /M
- Selectivity ratio [11]: 6.7
- Selectivity ratio [12]: 6.2
- Selectivity ratio [13]: 12
- Selectivity ratio [14]: 7.4
- Selectivity ratio [15]: 4.3
- Ratio (Quadruplex DNA [16]): 1.6
- Ratio (Quadruplex DNA [17]): 2
- Ratio (Quadruplex DNA [18]): 2.1
- Ratio (Quadruplex DNA [19]): 2.2
- Ratio (Quadruplex DNA [20]): 1.9
- DC50 (Quadruplex DNA [21]): 9.25 µM
- DC50 (Quadruplex DNA [22]): 6.03 µM
- DC50 (Quadruplex DNA [23]): 5.15 µM
- DC50 (Quadruplex DNA [24]): 6.64 µM
- DC50 (Quadruplex DNA [25]): 9.85 µM
- DC50 (dsDNA [26]): 13.1 µM
- Selectivity ratio [27]: 1.42
- Selectivity ratio [28]: 2.17
- Selectivity ratio [29]: 2.55
- Selectivity ratio [30]: 1.98
- Selectivity ratio [31]: 1.33
- Activity (Quadruplex DNA [32]): inactive
- Activity (Quadruplex DNA [33]): inactive
- Activity (Quadruplex DNA [34]): inactive
- Activity (Quadruplex DNA [35]): inactive
- Activity (Quadruplex DNA [36]): inactive
- fold change (FC) (Quadruplex DNA [37]): 11.2 to 20.6
- Ratio (Quadruplex DNA [38]): > 6
- IC50 (HepG2 [39]): 9.8 µM
- Drug uptake [40]: Not Active
Compound: CCn1c2ccccc2c2cc(/C=C(\C#N)c3ccc[n+](C)c3)ccc21.[I-]
- Activity (HepG2 [39]): Dose-dependent effect

- Activity (Quadruplex DNA [41]): 55.1%
- Activity (Quadruplex DNA [42]): 52.6%
- Activity (Quadruplex DNA [43]): 24 nm
- Kb (Calf thymus DNA [4]): 1.32 ×10⁴ /M
- Kb (dsDNA [5]): 3.97 ×10⁴ /M
- Kb (Quadruplex DNA [6]): 23.9 ×10⁴ /M
- Kb (Quadruplex DNA [7]): 32 ×10⁴ /M
- Kb (Quadruplex DNA [8]): 54.9 ×10⁴ /M
- Kb (Quadruplex DNA [9]): 18.3 ×10⁴ /M
- Kb (Quadruplex DNA [10]): 7.86 ×10⁴ /M
- Activity (Quadruplex DNA [44]): 578 nm
- Selectivity ratio [11]: 18.1
- Selectivity ratio [12]: 24.2
- Selectivity ratio [13]: 41.6
- Selectivity ratio [14]: 13.9
- Selectivity ratio [15]: 6
- Ratio (Quadruplex DNA [16]): 1.5
- Ratio (Quadruplex DNA [17]): 1.9
- Ratio (Quadruplex DNA [18]): 1.9
- Ratio (Quadruplex DNA [19]): 2.2
- Ratio (Quadruplex DNA [20]): 1.9
- DC50 (Quadruplex DNA [21]): 0.84 µM
- DC50 (Quadruplex DNA [22]): 2.15 µM
- DC50 (Quadruplex DNA [23]): 0.93 µM
- DC50 (Quadruplex DNA [24]): 1.81 µM
- DC50 (Quadruplex DNA [25]): 6.08 µM
- DC50 (dsDNA [26]): 4.34 µM
- Selectivity ratio [27]: 5.17
- Selectivity ratio [28]: 2.02
- Selectivity ratio [29]: 4.67
- Selectivity ratio [30]: 2.4
- Activity (Quadruplex DNA [32]): inactive
- Activity (Quadruplex DNA [33]): inactive
- Activity (Quadruplex DNA [34]): inactive
- Activity (Quadruplex DNA [35]): inactive
- Activity (Quadruplex DNA [36]): inactive
- IC50 (HepG2 [39]): 2.7 µM
Compound: CCn1c2ccccc2c2cc(/C=C/c3sc4ccccc4[n+]3CC)ccc21.[I-]
- Activity (HepG2 [39]): Dose-dependent effect
- Activity (HepG2 [45]): Active
